Data set [1] has as its system metabolism of dextromethorphan in human liver microsomes.
Experimental: (§1) The ability of various antidepressant compounds to inhibit the metabolism of dextromethorphan was examined using human liver microsomes.
(§2) After optimal incubation at 37° C., the reactions were terminated by addition of methanol containing internal standard for analytical quantification. The quenched samples were incubated at 4° C. for 10 minutes and centrifuged at 4° C. for 10 minutes. The supernatant was removed, and the metabolite of dextromethorphan (dextrorphan) was analyzed by LC-MS/MS.
Data set [2] has as its system metabolism of dextromethorphan to dextrorphan in human liver microsomes. Put plainly: Inhibition of the metabolism of dextromethorphan in human liver microsomes. Conditions: human, human liver microsomes, pH 7.4, probe dextromethorphan (5 μM). (Liver microsomes are vesicles of endoplasmic reticulum, rich in cytochrome P450 enzymes.)
Experimental: as §1, §2
Data set [3] deals with metabolism of dextromethorphan in human liver microsomes. The data set is described as above. Conditions: read-out: Mean IC50; human liver microsomes 0.5 mg/mL, dextromethorphan 5 μM, 37° C.; dextrorphan formation.
Experimental: as §1, §2
Data set [4] in a line: Pharmacokinetic study of dextromethorphan (DM) alone or DM in combination with bupropion, plasma concentrations by LC-MS/MS. Conditions: for average plasma concentration: Day 8, after bupropion administration; for Cmax: Dextromethorphan Cmax.
Data set [5] has as its system patients with treatment resistant depression (TRD). Put plainly: Phase 3 randomized, double-blind, active controlled trial of DM/BU in treatment resistant depression.
Text: Inclusion criteria for the open-label period included males or females 18-65 years of age, a history of inadequate response to 1 or 2 prior antidepressant treatments, established by the Antidepressant Treatment Response Questionaire (ATRQ), and a Hamilton Depression Rating Scale (HAMD-17) total score of ≥18. Inclusion criteria for the double-blind period included inadequate response to 2 or 3 prior antidepressant treatments, including open-label period failure. Exclusion criteria included a history of electroconvulsive therapy, vagus nerve stimulation, transcranial magnetic stimulation, or any experimental central nervous system treatment during the current episode or in the past 6 months, schizophrenia, bipolar disorder, obsessive compulsive disorder, psychiatric symptoms secondary to any other general medical condition.
The change in depressive symptoms over time was measured using the Montgomery-Asberg Depression Rating Scale (MADRS) and the Quick Inventory of Depressive Symptomatology-Self-Rated (QIDS-SR-16). The primary endpoint was the change from baseline in the MADRS after 6 weeks of treatment. The key secondary endpoints were the change from baseline in the MADRS after 1 week of treatment, after 2 weeks of treatment, the average change over entire 6-week double-blind treatment period, and the Sheehan Disability Scale (SDS). Other pre-specified secondary efficacy variables included the Cognitive subscale of the Massachusetts General Hospital Cognitive and Physical Functioning Questionnaire (CPFQ), and the Hamilton Anxiety Scale (HAM-A).
The subject of data set [6] is daily smokers using 10 or more cigarettes per day (nicotine addiction). Briefly: Phase 2 randomized, double-blind, active-controlled study of DM/BU for smoking cessation treatment. Format: in vivo, human.
Text: Enrolled subjects were daily smokers using 10 or more cigarettes per day.
The primary outcome measure was the change in smoking intensity, measured using the number of cigarettes smoked per day, assessed via daily smoking diaries.
For data set [7] the following is noted: human, in vivo.
The test system of data set [8] is patients with agitation associated with Alzheimer's disease. Put plainly: Phase 2/3 randomized, double-blind, controlled trial of DM/BU in agitation associated with Alzheimer's disease.
Experimental: (§3) A Phase 2/3 randomized, double-blind, controlled, multicenter, U.S. clinical trial was conducted to evaluate the efficacy and safety of DM/BU in patients with agitation associated with Alzheimer's disease. […] Subsequently, patients were randomized in a 1:1 ratio to receive DM/BU or placebo. […] The minimum score on the CMAI is 29, corresponding to the total absence of symptoms, with higher scores corresponding to greater agitation. The primary endpoint of the study was the change from baseline in the CMAI total score at Week 5. P-values were calculated based on least square mean estimates.
For data set [9], the system named is dextromethorphan metabolism (dextromethorphan/dextrorphan metabolic ratio). Conditions: human, in vivo, 3 h.
Experimental: (§4) Plasma concentrations of dextromethorphan and dextrorphan 3 hours after dosing were used, with a dextromethorphan/dextrorphan ratio of 0.3 or greater indicating a poor metabolizer phenotype.
The subject of data set [10] is adult patients with moderate to severe major depressive disorder (MDD). Put plainly: Phase 2 randomized, double-blind, active-controlled trial of DM/BU in major depressive disorder. It is filed as in vivo, human. Conditions: twice daily for 6 weeks; DM/BU 45 mg/105 mg or bupropion 105 mg.
Experimental: The changes from baseline in the Montgomery-Asberg Depression Rating Scale (MADRS) total score over the 6-week treatment period were calculated at each time point and averaged.
Data set [11] deals with patients with agitation associated with Alzheimer's disease. Conditions: both, human, in vivo, 5 weeks.
Experimental: as §3
The test system of data set [12] is metabolism of dextromethorphan to dextrorphan in human liver microsomes. Put plainly: in vitro. Particulars: pH 7.4.
Experimental: as §1, §2
In data set [13] the test system is dextromethorphan metabolism (dextromethorphan/dextrorphan metabolic ratio). Briefly: Phenotypic determination of dextromethorphan metabolizer status (dextromethorphan/dextrorphan metabolic ratio). Conditions: Day 8; 3 hours after dosing.
Experimental: as §4
[14] abbreviates: DM/BU 45 mg/105 mg or bupropion 150 mg twice daily.
Where [15] appears, read: Open-label Period, bupropion 150 mg twice daily.

Structures are written as SMILES. Read-outs that look alike come from different tables or passages of the source. Some results are limits rather than exact numbers.

In the case of `CNCC[C@H](Oc1cccc2ccccc12)c1cccs1` [(S)-Duloxetine], the midpoint of inhibition in [1], the IC50, lay at 4.1 µM.
On to `CN(C)CCCC1(c2ccc(F)cc2)OCc2cc(C#N)ccc21` (centres unmarked) [Citalopram], for which the IC50 (in general, the concentration that inhibits the measured activity by half) in data set [2] stood at 14.1 µM.
On to `CN(C)CC(c1ccc(O)cc1)C1(O)CCCCC1` (centres unmarked) [Desvenlafaxine], for which, in data set [2], the midpoint of inhibition, the IC50, lay at 97.3 µM.
`CN(C)CCC[C@@]1(c2ccc(F)cc2)OCc2cc(C#N)ccc21` [Escitalopram] yielded an IC50 in data set [2] of 17.1 µM.
Regarding `C[C@H]1NC(C)(C)CO[C@]1(O)c1cccc(Cl)c1` [(R,R)-Hydroxybupropion], in data set [3], the IC50 turned out to be 8.2 µM.
In the case of `C[C@H](NC(C)(C)C)[C@@H](O)c1cccc(Cl)c1` [Threohydroxybupropion], the average plasma concentration in [4] is reported as no less than 100 ng/mL. In [3], the IC50 turned out to be 3.9 µM.
Consider `CC(NC(C)(C)C)C(O)c1cccc(Cl)c1` (centres unmarked) [Erythrohydroxybupropion], for which, in [4], the average plasma concentration is no less than 20 ng/mL. For the same compound, the IC50 in [3] was determined as 1.4 µM.
`CC(NC(C)(C)C)C(=O)c1cccc(Cl)c1.Cl` (racemic) [Bupropion]: in [5] (setting [14]), the “mean reduction in MADRS averaged over the entire 6-week treatment period” value is 6.7 and the “mean reduction in QIDS-SR-16 averaged over the entire 6-week treatment period” value stood at 2.3. In [5] (Double-blind Period), the “Anxiety, number of subjects” value is 0 subjects; the “Any TEAE, % of subjects” value is given as “(39.1%)”; the “Any TEAE, number of subjects” value stood at 61 subjects; the “Constipation, % of subjects” value is “(1.9%)”. Besides, in data set [5] (Double-blind Period), the “Constipation, number of subjects” value was found to be 3 subjects; the “Dizziness, number of subjects” value is 0 subjects; the “Dry mouth, % of subjects” value is reported as “(1.9%)”; the “Dry mouth, number of subjects” value stood at 3 subjects. In addition, in data set [5] (Double-blind Period), the “Headache, % of subjects” value is “(4.5%)”; the “Headache, number of subjects” value was found to be 7 subjects; the “Insomnia, % of subjects” value was “(3.2%)”; the “Insomnia, number of subjects” value is recorded as 5 subjects. Besides, in data set [5] (Double-blind Period), the “Irritability, % of subjects” value was “(1.3%)”; the “Irritability, number of subjects” value was determined as 2 subjects; the “Nausea, % of subjects” value is reported as “(1.9%)”; the “Nausea, number of subjects” value is 3 subjects. The “rate of discontinuation due to adverse events” value in data set [5] (Double-blind Period) is 1.9%. Further, in data set [5] (Open-label Period), the “Anxiety, % of subjects” value is “(3.5%)”; the “Anxiety, number of subjects” value is 11 subjects; the “Constipation, % of subjects” value was “(4.2%)”; the “Constipation, number of subjects” value came out at 13 subjects. In addition, in data set [5] (Open-label Period), the “Dizziness, % of subjects” value is recorded as “(2.9%)”; the “Dizziness, number of subjects” value stood at 9 subjects; the “Dry mouth, % of subjects” value is given as “(4.2%)”; the “Dry mouth, number of subjects” value was found to be 13 subjects. In [5] (Open-label Period), the “Headache, % of subjects” value is “(4.5%)”; the “Headache, number of subjects” value is reported as 14 subjects; the “Insomnia, % of subjects” value is given as “(6.1%)”; the “Insomnia, number of subjects” value came out at 19 subjects. Also, in data set [5] (Open-label Period), the “Irritability, % of subjects” value is “(3.2%)”; the “Irritability, number of subjects” value is reported as 10 subjects; the “Nausea, % of subjects” value is “(7.1%)”; the “Nausea, number of subjects” value was found to be 22 subjects. Also, in [5] (setting [15]), the “Any TEAE, % of subjects” value is recorded as “(43.5)” and the “Any TEAE, number of subjects” value is reported as 135 subjects. Also, the “mean MADRS reduction” value in [5] (Week 1) was determined as 3.6. In addition, the “mean MADRS reduction” value in data set [5] (Week 2) was 6.1. Besides, the “rate of remission from depression (QIDS-SR-16 ≤5)” value in data set [5] (Week 6) was 8.2%. Besides, the “mean MADRS reduction” value in data set [5] (Week 6 (primary endpoint)) came to 9.4. Moreover, the “proportion of smokers with more than 50% reduction in expired carbon monoxide levels” value in [6] (3-week period) amounted to 30.4%. In addition, in data set [6] (over the 3-week period, twice daily), the “average reduction in cigarettes smoked per day” value worked out at 6.79 cigarettes per day. Also, in data set [7], the “reduction in mean dextrorphan AUC0-12” value is reported as roughly 55% and the “reduction in mean dextrorphan Cmax” value is given as roughly 78%. In addition, in [8] (Safety Population), the “Deaths, % of subjects” value is given as “(2.0%” and the “Deaths, number of subjects” value turned out to be 1 subjects. The “Deaths, number of subjects” value in data set [8] (Safety Population, listed as bupropion) is listed as “one”. For the same compound, in data set [8] (Week 5 (primary endpoint)), the “mean reduction from baseline in the CMAI total score” value is listed as 10.0 points. Besides, in data set [9], the “subjects converted to poor metabolizer status” value was determined as 100%. The compound further gave an IC50 in data set [2] of 9.1 µM. Further, in data set [10], the “Change in MADRS Total Score at week 6” value is recorded as −12.1 and the “Change in MADRS Total Score over 6-week period (averaged)” value is −8.8. Further, in [11], the “Diarrhea, number of subjects” value is 3 subjects; the “Discontinuation due to AEs, number of subjects” value is reported as 1 subjects; the “Dizziness, number of subjects” value is reported as 5 subjects; the “Falls, % of subjects” value is listed as “(14.3%)”. Further, in [11], the “Falls, number of subjects” value is given as 7 subjects; the “Fatigue, % of subjects” value is on record as “(10.2%)”; the “Fatigue, number of subjects” value is recorded as 5 subjects; the “Headache, % of subjects” value is given as “(6.1%)”. Moreover, in [11], the “Headache, number of subjects” value worked out at 3 subjects; the “Insomnia, % of subjects” value is listed as “(6.1%)”; the “Insomnia, number of subjects” value was determined as 3 subjects; the “Serious AEs, number of subjects” value is reported as 4 subjects. Moreover, in [11], the “Somnolence, number of subjects” value is 2 subjects; the “Subjects with any TEAE, % of subjects” value is “(61.2%)”; the “Subjects with any TEAE, number of subjects” value turned out to be 30 subjects.
For the compound `C[C@H]1NC(C)(C)CO[C@]1(O)c1cccc(Cl)c1` [hydroxybupropion], in [4], the average plasma concentration is no less than 200 ng/mL.
In turn, `COc1ccc(C(CN(C)C)C2(O)CCCCC2)cc1` (centres unmarked) [Venlafaxine] had an IC50 in data set [12] of 27.7 µM.
In the case of `COCCCC/C(=N\OCCN)c1ccc(C(F)(F)F)cc1` [Fluvoxamine], half-maximal inhibition in data set [2] (IC50) was put at 6.5 µM.
Turning to `C[C@@H]1NC(C)(C)CO[C@@]1(O)c1cccc(Cl)c1` [(25,3S)-Hydroxybupropion], in data set [3], the IC50 is 12.5 µM.
Regarding `COc1ccc2c(c1)[C@]13CCCC[C@@H]1[C@H](C2)N(C)CC3` [Dextromethorphan], in data set [13], the “mean plasma dextromethorphan/dextrorphan metabolic ratio” value is given as “remained unchanged”. In addition, in data set [4] (Day 1), the “Mean Trough Dextromethorphan Plasma Concentrations” value came to 0.7 ng/mL. Besides, the “Mean Trough Dextromethorphan Plasma Concentrations” value in data set [4] (Day 5) is on record as 1.2 ng/mL. In data set [4] (Day 6), the “Mean Trough Dextromethorphan Plasma Concentrations” value is 1.3 ng/mL. Moreover, the “Mean Trough Dextromethorphan Plasma Concentrations” value in data set [4] (Day 7) is 1.2 ng/mL. Moreover, in [4] (Day 8), the “Dextromethorphan Cavg” value is given as 2.3 ng/mL, the “Dextromethorphan Cmin” value was determined as 1.1 ng/mL, the “Mean Trough Dextromethorphan Plasma Concentrations” value worked out at 1.1 ng/mL and the “mean elimination half-life (T1/2 el) of dextromethorphan” value was found to be 6.6 h. Moreover, in data set [4] (human, in vivo, 60 mg), the AUC(0-inf) (as a rule, total exposure, with the tail of the curve extrapolated) worked out at 41.2 ng·h/mL; the Tmax (in general, the time at which the peak concentration occurs) is 2.3 h; the concentration at 0 h was determined as 1.2 ng/mL; the concentration at 1 h turned out to be 2.4 ng/mL. In data set [4] (human, in vivo, 60 mg), the concentration at 2 h amounted to 3.6 ng/mL, the concentration at 3 h turned out to be 3.6 ng/mL, the concentration at 4 h amounted to 3.3 ng/mL and the concentration at 6 h stood at 2.5 ng/mL. In data set [4] (human, in vivo, 60 mg), the concentration at 8 h came out at 1.9 ng/mL, the concentration at 12 h worked out at 1.1 ng/mL, the concentration at 24 h was 0.4 ng/mL and the concentration at 36 h worked out at 0.1 ng/mL. In addition, the AUC(0-t) (commonly exposure summed from dosing to a finite time, without extrapolation to infinity) in data set [4] (human, in vivo, 60 mg, Dextromethorphan AUC0-12, Day 1) was found to be 20.1 ng·h/mL. In data set [4] (human, in vivo, 60 mg, Dextromethorphan AUC0-12, Day 8), the AUC(0-t) came out at 28.1 ng·h/mL. Further, in data set [4] (human, in vivo, 60 mg, Dextromethorphan AUC0-24, Day 8), the AUC(0-t) worked out at 37.1 ng·h/mL. Also, the Cmax – broadly, the maximum level reached in the sampled fluid or tissue – in data set [4] (human, in vivo, 60 mg, Day 1) stood at 3 ng/mL. In [4] (human, in vivo, 60 mg, Day 8), the Cmax turned out to be 3.8 ng/mL.

These data come from patent US12569479B2 (priority 2016, dated 2026).
